Where a SMILES comes first, the peptide text is derived from it. [ ]: non-standard residue; d: D form. The star is where a group is joined. NHCH2CH2OH = OCCN*; For = O=C*
Legend:
[1] = H+/Na+ transport assay of bead-derived peptides (one-point); format: biochemical; set-up: key: relative activity; mean of two control wells = 1.00; conditions: bead-derived peptide solution, EYPC/EYPG LUVs;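 also: relative to parent gramicidin A activity set to 1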
Method in brief: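 H+/Na+ transport is monitored through pyranine fluorescence in freshly extruded LUVs after a 30-min room-temperature vortex with each library peptide at a single concentration. Signals are normalized to detergent (Triton X-100) and untreated controls.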

[2] = tested on: Streptococcus pyogenes SSI-9; experiment: Antibacterial activity assay of bead-derived peptides (three concentrations); format: cell-based; set-up: key: +++: inhibition by the 640-fold diluted peptide solution; ++: inhibition by the 160-fold diluted solution; +: inhibition by the 40-fold diluted solution; -: no inhibition; conditions: S. pyogenes, bead-derived peptide solution, three concentrations
Method in brief: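 Three stock dilutions per peptide (none, 4-fold, 16-fold in DMSO) are screened in 96-well format. The medium is blood-supplemented cation-adjusted MHB, inoculated with 2 × 10^5 CFU S. pyogenes SSI-9. Growth is read as cell precipitation at 18 h, 37 °C.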

[3] = cell viability/%
Method in brief: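 First, library peptide stocks are diluted 250-fold in RPMI1640 with 10% heat-inactivated FBS. Next, they are mixed with P388 cells to give 1 × 10^4 cells/mL and incubated 92 h at 37 °C, 5% CO2. Finally, viability (%) is scored by WST-1 absorbance at 415 nm.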

SMILES | H+/Na+ transport activity normalized against the value of 1 (1.00) [1] | antibacterial activity [2] | viability [3] [%]
CNC(=O)C[C@@H](NC(=O)[C@H](C)NC(=O)CNC(=O)[C@@H](NC=O)C(C)C)C(=O)N[C@@H](C)C(=O)N[C@@H](C(=O)N[C@H](C(=O)N[C@@H](C(=O)N[C@@H](Cc1c[nH]c2ccccc12)C(=O)N[C@H](CC(C)C)C(=O)N[C@@H](Cc1c[nH]c2ccccc12)C(=O)N[C@H](CC(C)C)C(=O)N[C@@H](Cc1c[nH]c2ccccc12)C(=O)N[C@@H](C(=O)N[C@@H](Cc1c[nH]c2ccccc12)C(=O)NCCO)C(C)C)C(C)C)C(C)C)C(C)C [compound 11200] (For-VGA[dD](NHMe)A[dV]V[dV]W[dL]W[dL]W[dV]W-NHCH2CH2OH) | 1.06 | - | 66
CC(C)C[C@@H](NC(=O)[C@H](C)NC(=O)CNC(=O)[C@@H](NC=O)C(C)C)C(=O)N[C@@H](C)C(=O)N[C@@H](C(=O)N[C@H](C(=O)N[C@@H](C(=O)N[C@@H](Cc1c[nH]c2ccccc12)C(=O)N[C@H](CC(C)C)C(=O)N[C@@H](Cc1c[nH]c2ccccc12)C(=O)N[C@@H](C(=O)N[C@@H](Cc1c[nH]c2ccccc12)C(=O)N[C@@H](C(=O)N[C@@H](Cc1c[nH]c2ccccc12)C(=O)NCCO)C(C)C)C(C)C)C(C)C)C(C)C)C(C)C [compound 5587] (For-VGA[dL]A[dV]V[dV]W[dL]W[dV]W[dV]W-NHCH2CH2OH) | 1.23 | ++ | 85.3
CC(C)C[C@@H](NC(=O)[C@H](C)NC(=O)CNC(=O)[C@@H](NC=O)C(C)C)C(=O)N[C@@H](C)C(=O)N[C@H](CC(C)C)C(=O)N[C@H](C(=O)N[C@@H](C(=O)N[C@@H](Cc1c[nH]c2ccccc12)C(=O)N[C@@H](C(=O)N[C@@H](Cc1c[nH]c2ccccc12)C(=O)N[C@@H](C(=O)N[C@@H](Cc1c[nH]c2ccccc12)C(=O)N[C@H](CC(C)C)C(=O)N[C@@H](Cc1c[nH]c2ccccc12)C(=O)NCCO)C(C)C)[C@H](C)O)[C@H](C)O)C(C)C [compound 3782] (For-VGA[dL]A[dL]V[dT]W[dT]W[dV]W[dL]W-NHCH2CH2OH) | 1.12 | - | 100
CC(C)C[C@@H](NC(=O)[C@H](C)NC(=O)[C@H](NC(=O)[C@H](C)NC(=O)CNC(=O)[C@@H](NC=O)C(C)C)C(C)C)C(=O)N[C@H](C(=O)N[C@@H](C(=O)N[C@@H](Cc1c[nH]c2ccccc12)C(=O)N[C@@H](C(=O)N[C@@H](Cc1c[nH]c2ccccc12)C(=O)N[C@@H](C(=O)N[C@@H](Cc1c[nH]c2ccccc12)C(=O)N[C@@H](C(=O)N[C@@H](Cc1c[nH]c2ccccc12)C(=O)NCCO)C(C)C)C(C)C)C(C)C)[C@H](C)O)C(C)C [compound 3492] (For-VGA[dV]A[dL]V[dT]W[dV]W[dV]W[dV]W-NHCH2CH2OH) | 1.12 | - | 100
CNC(=O)C[C@@H](NC(=O)[C@@H](NC(=O)[C@H](NC(=O)[C@H](C)NC(=O)[C@H](NC(=O)[C@H](C)NC(=O)CNC(=O)[C@@H](NC=O)C(C)C)C(C)C)C(C)C)C(C)C)C(=O)N[C@@H](Cc1c[nH]c2ccccc12)C(=O)N[C@H](CC(C)C)C(=O)N[C@@H](Cc1c[nH]c2ccccc12)C(=O)N[C@@H](C(=O)N[C@@H](Cc1c[nH]c2ccccc12)C(=O)N[C@@H](C(=O)N[C@@H](Cc1c[nH]c2ccccc12)C(=O)NCCO)C(C)C)C(C)C [compound 5536] (For-VGA[dV]A[dV]V[dD](NHMe)W[dL]W[dV]W[dV]W-NHCH2CH2OH) | 1.45 | - | 100
CC(C)C[C@@H](NC(=O)[C@H](C)NC(=O)[C@H](NC(=O)[C@H](C)NC(=O)CNC(=O)[C@@H](NC=O)C(C)C)[C@H](C)O)C(=O)N[C@H](C(=O)N[C@@H](C(=O)N[C@@H](Cc1c[nH]c2ccccc12)C(=O)N[C@H](CC(C)C)C(=O)N[C@@H](Cc1c[nH]c2ccccc12)C(=O)N[C@H](CC(C)C)C(=O)N[C@@H](Cc1c[nH]c2ccccc12)C(=O)N[C@@H](C(=O)N[C@@H](Cc1c[nH]c2ccccc12)C(=O)NCCO)C(C)C)C(C)C)C(C)C [compound 4605] (For-VGA[dT]A[dL]V[dV]W[dL]W[dL]W[dV]W-NHCH2CH2OH) | 1.35 | - | 100
CC(C)C[C@@H](NC(=O)[C@H](C)NC(=O)[C@H](NC(=O)[C@H](C)NC(=O)CNC(=O)[C@@H](NC=O)C(C)C)[C@H](C)O)C(=O)N[C@H](C(=O)N[C@H](CC(C)C)C(=O)N[C@@H](Cc1c[nH]c2ccccc12)C(=O)N[C@H](CC(C)C)C(=O)N[C@@H](Cc1c[nH]c2ccccc12)C(=O)N[C@@H](C(=O)N[C@@H](Cc1c[nH]c2ccccc12)C(=O)N[C@H](CC(C)C)C(=O)N[C@@H](Cc1c[nH]c2ccccc12)C(=O)NCCO)C(C)C)C(C)C [compound 789] (For-VGA[dT]A[dL]V[dL]W[dL]W[dV]W[dL]W-NHCH2CH2OH) | 1.08 | - | 100
